Biological target: T1, HCMV polymerase (Human cytomegalovirus, UniProt P08546)
T1 construct: made in house; host or cells: recombinant baculovirus-infected SF-9 insect cells
Assay: biochemical
Conditions: HCMV polymerase; SPA; modified assay: compounds in 100% DMSO, 4.5 mM DTT
Procedure, shortened: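 Scintillation proximity assay with baculovirus/SF-9-expressed HCMV polymerase, 90 nM ³H-dTTP and 6 nM biotinylated poly(dA)-oligo(dT) in HEPES pH 7.5/KCl/MgCl2/BSA, ±2 mM CHAPS, 25 or 37 °C, 30 min for HCMV. Modified version: compounds diluted in 100% DMSO, 4.5 mM DTT added. IC50 from linear regression.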

T1 sequence (P08546 whole entry): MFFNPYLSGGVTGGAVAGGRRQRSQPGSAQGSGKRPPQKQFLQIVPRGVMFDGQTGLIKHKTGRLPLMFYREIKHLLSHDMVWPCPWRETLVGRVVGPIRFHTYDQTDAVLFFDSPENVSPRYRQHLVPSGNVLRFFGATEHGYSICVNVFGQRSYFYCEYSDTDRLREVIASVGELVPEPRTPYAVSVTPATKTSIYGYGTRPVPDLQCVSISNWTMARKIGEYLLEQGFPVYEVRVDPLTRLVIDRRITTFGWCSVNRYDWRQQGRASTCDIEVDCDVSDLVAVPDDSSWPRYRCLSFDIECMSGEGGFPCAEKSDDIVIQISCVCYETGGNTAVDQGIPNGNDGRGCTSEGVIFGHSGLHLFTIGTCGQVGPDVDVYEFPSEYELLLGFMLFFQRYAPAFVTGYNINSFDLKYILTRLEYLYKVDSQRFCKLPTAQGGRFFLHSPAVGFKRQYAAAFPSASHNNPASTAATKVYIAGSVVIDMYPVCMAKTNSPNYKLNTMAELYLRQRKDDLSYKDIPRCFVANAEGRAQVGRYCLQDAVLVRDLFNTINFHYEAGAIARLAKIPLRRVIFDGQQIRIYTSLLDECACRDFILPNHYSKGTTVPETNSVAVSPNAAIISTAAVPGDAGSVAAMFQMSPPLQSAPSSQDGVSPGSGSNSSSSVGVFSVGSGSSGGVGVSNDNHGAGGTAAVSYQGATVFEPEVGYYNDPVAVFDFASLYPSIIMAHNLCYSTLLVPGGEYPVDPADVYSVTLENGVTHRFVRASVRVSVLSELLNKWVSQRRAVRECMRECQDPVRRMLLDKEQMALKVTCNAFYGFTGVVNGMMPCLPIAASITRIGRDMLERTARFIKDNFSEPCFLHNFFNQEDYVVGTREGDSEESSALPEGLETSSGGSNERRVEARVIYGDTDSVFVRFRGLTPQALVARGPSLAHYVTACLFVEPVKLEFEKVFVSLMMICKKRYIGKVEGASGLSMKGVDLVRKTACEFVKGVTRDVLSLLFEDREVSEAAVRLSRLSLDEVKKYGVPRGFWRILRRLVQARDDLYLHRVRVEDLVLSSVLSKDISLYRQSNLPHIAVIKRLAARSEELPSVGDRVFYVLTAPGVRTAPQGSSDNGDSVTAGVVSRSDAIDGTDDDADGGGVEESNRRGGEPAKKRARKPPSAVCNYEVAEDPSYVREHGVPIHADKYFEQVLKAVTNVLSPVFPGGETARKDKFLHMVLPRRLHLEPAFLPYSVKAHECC

SMILES	IC50 [nM]
CS(=O)(=O)Cn1cc(C(=O)NCc2ccc(Cl)cc2)c(=O)c2cc(CN3CCOCC3)ccc21 [Example 80, N-(4-Chlorobenzyl)-1-[(methylsulfonyl)methyl]-6-(4-morpholinylmethyl)-4-oxo-1,4-dihydro-3-quinolinecarboxamide]	1100
Cn1cc(C(=O)NCc2ccc(Cl)cc2)c(=O)c2cc(CC3CCOCC3)ccc21 [Example 98, N-(4-Chlorobenzyl)-1-methyl-4-oxo-6-(tetrahydro-2H-pyran-4-ylmethyl)-1,4-dihydro-3-quinolinecarboxamide]	310
CCN(CC)CCn1cc(C(=O)NCc2ccc(Cl)cc2)c(=O)c2cc(C#CCO)cc(F)c21 [Example 10, N-(4-Chlorobenzyl)-1-[2-(diethylamino)ethyl]-8-fluoro-6-(3-hydroxy-1-propynyl)-4-oxo-1,4-dihydro-3-quinolinecarboxamide]	1700
O=C(NCc1ccc(Cl)cc1)c1cn(CCCSCCCO)c2ccc(CN3CCOCC3)cc2c1=O [Example 66, N-(4-Chlorobenzyl)-1-{3-[(3-hydroxypropyl)sulfanyl]propyl}-6-(4-morpholinylmethyl)-4-oxo-1,4-dihydro-3-quinolinecarboxamide]	1100
COCCOCCn1cc(C(=O)NCc2ccc(Cl)cc2)c(=O)c2cc(CN(C)CC(O)c3ccccc3)ccc21 (stereo not drawn) [Example 89, N-(4-Chlorobenzyl)-6-{[(2-hydroxy-2-phenylethyl)(methyl)amino]methyl}-1-[2-(2-methoxyethoxy)ethyl]-4-oxo-1,4-dihydro-3-quinoline-carboxamide]	6700
C[S+]([O-])Cn1cc(C(=O)NCc2ccc(Cl)cc2)c(=O)c2cc(CN3CCOCC3)ccc21 (stereo not drawn) [Example 79, N-(4-Chlorobenzyl)-1-[(methylsulfinyl)methyl]-6-(4-morpholinylmethyl)-4-oxo-1,4-dihydro-3-quinolinecarboxamide]	1100
Cn1cc(C(=O)NCc2ccc(Cl)cc2)c(=O)c2cc(CN3CCCSCC3)ccc21 [Example 47, N-(4-Chlorobenzyl)-1-methyl-4-oxo-6-(1,4-thiazepan-4-ylmethyl)-1,4-dihydro-3-quinolinecarboxamide]	7200
O=C(NCc1ccc(Cl)cc1)c1cn(CSc2ccc(Cl)cc2)c2ccc(CN3CCOCC3)cc2c1=O [Example 101, N-(4-Chlorobenzyl)-1-([(4-chlorophenyl)sulfanyl]methyl)-6-(4-morpholinylmethyl)-4-oxo-1,4-dihydro-3-quinolinecarboxamide]	300
O=C(NCc1ccc(Cl)cc1)c1cn(CCOCCO)c2ccc(CN3CCOCC3)cc2c1=O [Example 57, N-(4-Chlorobenzyl)-1-[2-(2-hydroxyethoxy)ethyl]-6-(4-morpholinylmethyl)-4-oxo-1,4-dihydro-3-quinolinecarboxamide]	1200
O=C(NCc1ccc(Cl)cc1)c1cn(C2CCNCC2)c2ccc(CN3CCOCC3)cc2c1=O [Example 110, N-(4-Chlorobenzyl)-6-(4-morpholinylmethyl)-4-oxo-1-(4-piperidinyl)-1,4-dihydro-3-quinolinecarboxamide]	670
Cn1cc(C(=O)NCc2ccc(Cl)cc2)c(=O)c2cc(CN3CCC(F)(F)CC3)ccc21 [Example 52, N-(4-chlorobenzyl)-6-((4,4-difluoro-1-piperidinyl)methyl)-1-methyl-4-oxo-1,4-dihydro-3-quinolinecarboxamide]	9600
CN(CCO)Cc1ccc2c(c1)c(=O)c(C(=O)NCc1ccc(Cl)cc1)cn2C [Example 45, N-(4-Chlorobenzyl)-6-(((2-hydroxyethyl)(methyl)amino)-methyl)-1-methyl-4-oxo-1,4-dihydro-3-quinolinecarboxamide]	11900

— US6248739A, “Quinolinecarboxamides as antiviral agents” (Pharmacia & Upjohn Company, priority 1999, dated 2001)
